Assay results taken from patent US20070219214A1, “Dual NK2/NK3-antagonists, pharmaceutical compositions comprising them, and processes for their preparation” (Solvay pharmaceuticals GmbH, priority 2006, published 2007).
Where two headings read alike, the source gives them in different places.

Assays:
human NK2-receptor [1] = molecular target: T1, human NK2-receptor (Homo sapiens, UniProt P21452); experiment: Binding potency of the test substances to NK2-receptors in vitro ([3H]-SR 48968 displacement); design: expressed in transfected cells; host or cells: CHO cells (membrane preparation); conditions: human NK2-receptor in CHO cell membranes, [3H]-SR 48968 (saredutant), average of at least three measurements; for Ki: read-out: pKi, binding potency to NK2-receptors (converted)
T1 sequence (P21452 1-398): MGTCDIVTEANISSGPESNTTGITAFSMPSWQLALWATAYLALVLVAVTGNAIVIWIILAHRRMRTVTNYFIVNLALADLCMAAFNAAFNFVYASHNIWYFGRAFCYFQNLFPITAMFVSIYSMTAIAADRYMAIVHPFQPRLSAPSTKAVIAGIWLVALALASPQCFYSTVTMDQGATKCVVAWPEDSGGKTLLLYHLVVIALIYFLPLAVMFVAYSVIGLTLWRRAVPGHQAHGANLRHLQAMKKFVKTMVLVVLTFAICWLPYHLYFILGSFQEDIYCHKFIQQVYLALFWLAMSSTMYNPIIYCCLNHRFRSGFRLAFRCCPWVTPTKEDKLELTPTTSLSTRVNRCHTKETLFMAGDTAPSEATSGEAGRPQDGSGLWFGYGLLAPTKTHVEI
Summary of the method: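 Membranes from CHO cells stably expressing the receptor were incubated with [3H]-saredutant plus test compound, then filtered and counted by liquid scintillation. Nonspecific binding defined with 0.1 μmol/l unlabeled saredutant. IC50 from displacement converted to Ki via Cheng-Prusoff and reported as pKi, averaged over measurements.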

NK2-receptor = molecular target: T2, NK2-receptor (Cavia porcellus, UniProt Q64077); experiment: NK2-receptor-antagonistic effectiveness in vivo, NKA-induced late hypotension, bronchoconstriction and colonic pressure in anaesthetised guinea pigs; conditions: guinea pig; for oral activity on the NK2, in words / ED50 AUC1-180 min oral, NK2 (bronchoconstriction) / ED50 AUC1-180 min oral, NK2 (colonic motility) / ED50 AUC1-180 min oral, NK2 (late hypotension): oral administration; for ED50 iv after 1 min (cumulative), NK2 (bronchoconstriction) / ED50 iv after 1 min (cumulative), NK2 (colonic motility) / ED50 iv after 1 min (cumulative), NK2 (late hypotension) / ED50 AUC1-180 min oral, NK2 (bronchoconstriction) / ED50 AUC1-180 min oral, NK2 (colonic motility) / ED50 AUC1-180 min oral, NK2 (late hypotension): NKA 200 pmol/animal i.v.; for ED50 iv after 1 min (cumulative), NK2 (bronchoconstriction) / ED50 iv after 1 min (cumulative), NK2 (colonic motility) / ED50 iv after 1 min (cumulative), NK2 (late hypotension): intravenous administration
T2 construct: from tissue; host or cells: whole animal (Pirbright-White guinea pigs), in vivo
T2 sequence (Q64077 1-402): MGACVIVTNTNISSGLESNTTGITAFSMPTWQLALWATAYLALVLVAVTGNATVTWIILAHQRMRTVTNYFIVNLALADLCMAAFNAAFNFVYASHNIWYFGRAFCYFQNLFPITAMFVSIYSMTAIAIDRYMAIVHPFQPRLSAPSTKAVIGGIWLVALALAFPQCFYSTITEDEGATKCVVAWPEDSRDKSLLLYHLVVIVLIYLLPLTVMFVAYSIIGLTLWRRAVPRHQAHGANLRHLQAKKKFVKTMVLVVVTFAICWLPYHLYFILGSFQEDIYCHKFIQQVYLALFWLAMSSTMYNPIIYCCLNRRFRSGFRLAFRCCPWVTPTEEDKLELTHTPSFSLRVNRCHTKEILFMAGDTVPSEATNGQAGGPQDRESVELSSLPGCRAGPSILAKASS
Text: 10. Determination of the NK1- and NK2-Receptor-Antagonistic Effectiveness of the Test Substances In Vivo
The NK1- and NK2-antagonistic activities of the test substances were investigated in anaesthetised guinea pigs in each case after intravenous (=i.v.) and oral (=p.o.) administration in vivo. With the present test model it is possible to detect both NK2-antagonistic effects in three different organ systems (respiratory tracts, colon and circulation) and NK1-antagonistic effects (rapid drop in blood pressure) in an animal simultaneously.
Pirbright-White guinea pigs of a body weight of 500-700 g were anaesthetised with ketamine/xylazine (67/13 mg/kg subcutaneously, initial dose, further doses administered as required). The animals were provided with an intravenous catheter in order to administer the substance and an intra-arterial catheter to measure the blood pressure. The animals were artificially ventilated via a tracheal cannula and the respiratory pressure was recorded by means of a pressure transducer. A balloon was introduced into the distal colon of the animals for manometric recording of colon motility by means of a pressure transducer. Blood pressure, heart rate, respiratory pressure and colonic pressure were measured continuously for each animal and plotted on a recorder and by means of a digital data-processing system. […] The second phase of delayed hypotension (=phase of maximum hypotension after 2-5 min.) on the other hand is mediated via NK2-receptors, since they can be blocked by specific NK2-receptor antagonists.
These ED50 values obtained from cumulative dose effect curves are plotted in Table 13.

human NK2-receptor [2] = molecular target: T1, human NK2-receptor; experiment: Functional cellular test, Ca2+ measurements using FLIPR for NK2 activity; conditions: for pA2 data for NK2: CHO cells, human NK2, FLIPR Ca2+, agonist NKA 10^-7 M;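 on all read-outs here: CHO cells stably expressing the human receptor, loaded with a calcium dye, antagonist inhibition of ligand-evoked intracellular calcium rise read as peak fluorescence change on FLIPR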
human NK3 receptor = molecular target: T3, human NK3 receptor (Homo sapiens, UniProt P29371); experiment: Functional cellular test, Ca2+ measurements using aequorin for NK3 activity; type: cell-based; design: expressed in transfected cells; host or cells: cell line co-expressing mitochondrially targeted apoaequorin (CHO according to b76/b77); conditions: for Kb: read-out: pA2 data for NK3 (converted); for pA2 data for NK3: cell line with human NK3 receptor and apoaequorin, agonist senktide 5x10-8 M
T3 sequence (P29371 1-465): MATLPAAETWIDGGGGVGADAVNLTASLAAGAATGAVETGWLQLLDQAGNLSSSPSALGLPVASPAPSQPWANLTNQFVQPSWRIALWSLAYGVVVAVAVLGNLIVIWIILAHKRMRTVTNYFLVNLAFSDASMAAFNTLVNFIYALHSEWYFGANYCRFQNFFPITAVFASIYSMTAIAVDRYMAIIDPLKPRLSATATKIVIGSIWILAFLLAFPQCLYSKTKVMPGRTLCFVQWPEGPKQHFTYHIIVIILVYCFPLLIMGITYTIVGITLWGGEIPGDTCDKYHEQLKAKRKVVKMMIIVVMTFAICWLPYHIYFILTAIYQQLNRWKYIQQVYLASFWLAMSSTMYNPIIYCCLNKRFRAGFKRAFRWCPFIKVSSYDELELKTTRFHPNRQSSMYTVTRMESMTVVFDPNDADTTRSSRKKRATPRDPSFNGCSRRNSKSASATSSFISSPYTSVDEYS

[3] = iv, read-out: ED50 iv after 1 min (cumulative), NK2 (bronchoconstriction)
[4] = iv, read-out: ED50 iv after 1 min (cumulative), NK2 (colonic motility)
[5] = iv, read-out: ED50 iv after 1 min (cumulative), NK2 (late hypotension)

Ki (human NK2-receptor [1])	ED50 (NK2-receptor; [3])	ED50 (NK2-receptor; [4])	ED50 (NK2-receptor; [5])	oral activity on the NK2, in words (NK2-receptor)	ED50 (NK2-receptor; read-out: ED50 AUC1-180 min oral, NK2 (bronchoconstriction))	ED50 (NK2-receptor; read-out: ED50 AUC1-180 min oral, NK2 (colonic motility))	ED50 (NK2-receptor; read-out: ED50 AUC1-180 min oral, NK2 (late hypotension))	Kb (human NK2-receptor [2])	Kb (human NK3 receptor)	pKi, binding potency to NK2-receptors (human NK2-receptor [1])	ED50 iv after 1 min (cumulative), NK2 (bronchoconstriction) (NK2-receptor)	ED50 iv after 1 min (cumulative), NK2 (colonic motility) (NK2-receptor)	ED50 iv after 1 min (cumulative), NK2 (late hypotension) (NK2-receptor)	pA2 data for NK2 (human NK2-receptor [2])	pA2 data for NK3 (human NK3 receptor)	ED50 AUC1-180 min oral, NK2 (bronchoconstriction) (NK2-receptor)	ED50 AUC1-180 min oral, NK2 (colonic motility) (NK2-receptor)	ED50 AUC1-180 min oral, NK2 (late hypotension) (NK2-receptor)	SMILES
0.158 nM	0.033 µmol/kg	< 0.003 µmol/kg	0.044 µmol/kg	active orally on the NK2	0.457 µmol/kg	1.08 µmol/kg	2.24 µmol/kg	0.2 nM	2.51 nM	–	–	–	–	–	–	–	–	–	CN(C)C(=O)C1(N2CCCCC2)CCN(CC[C@H](CN(C)C(=O)c2ccccc2)c2ccc(Cl)c(Cl)c2)CC1 [compound 1]
–	–	–	–	–	–	–	–	–	–	8.8	0.221 µmol/kg	0.07 µmol/kg	0.397 µmol/kg	8.7	8.2	–	–	–	CN(C)C(=O)C1(N2CCCCC2)CCN(CC[C@H](CN(C)C(=O)C2CCCCC2)c2ccc(Cl)c(Cl)c2)CC1 [compound 3]
1.26 nM	0.18 µmol/kg	0.068 µmol/kg	0.181 µmol/kg	–	–	–	–	3.16 nM	10 nM	–	–	–	–	–	–	–	–	–	CN(C)C(=O)C1(N2CCCCC2)CCN(CCC(CN(C)C(=O)c2ccc(Cl)nc2)c2ccc(Cl)c(Cl)c2)CC1 (stereo not drawn) [compound 18]
3.16 nM	0.093 µmol/kg	0.028 µmol/kg	0.209 µmol/kg	–	–	–	–	0.501 nM	50.1 nM	–	–	–	–	–	–	–	–	–	CN(C)C(=O)C1(N2CCCCC2)CCN(CCC(CN(C)C(=O)c2cccnc2)c2ccc(Cl)c(Cl)c2)CC1 (stereo not drawn) [compound 19]

The next lines start with the compound.

SMILES	Ki (human NK2-receptor [1])	ED50 (NK2-receptor; [3])	ED50 (NK2-receptor; [4])	ED50 (NK2-receptor; [5])	oral activity on the NK2, in words (NK2-receptor)	ED50 (NK2-receptor; read-out: ED50 AUC1-180 min oral, NK2 (bronchoconstriction))	ED50 (NK2-receptor; read-out: ED50 AUC1-180 min oral, NK2 (colonic motility))	ED50 (NK2-receptor; read-out: ED50 AUC1-180 min oral, NK2 (late hypotension))	Kb (human NK2-receptor [2])	Kb (human NK3 receptor)	pKi, binding potency to NK2-receptors (human NK2-receptor [1])	ED50 iv after 1 min (cumulative), NK2 (bronchoconstriction) (NK2-receptor)	ED50 iv after 1 min (cumulative), NK2 (colonic motility) (NK2-receptor)	ED50 iv after 1 min (cumulative), NK2 (late hypotension) (NK2-receptor)	pA2 data for NK2 (human NK2-receptor [2])	pA2 data for NK3 (human NK3 receptor)	ED50 AUC1-180 min oral, NK2 (bronchoconstriction) (NK2-receptor)	ED50 AUC1-180 min oral, NK2 (colonic motility) (NK2-receptor)	ED50 AUC1-180 min oral, NK2 (late hypotension) (NK2-receptor)
CN(C)C(=O)C1(N2CCCCC2)CCN(CC[C@H](CN(C)C(=O)c2ccc(F)cc2)c2ccc(Cl)c(Cl)c2)CC1 [compound 4]	–	–	–	–	active orally on the NK2	–	–	–	–	–	9.6	0.058 µmol/kg	0.053 µmol/kg	0.04 µmol/kg	8.6	8.2	<3.2 µmol/kg	<3.2 µmol/kg	12 µmol/kg
CN(C)C(=O)C1(N2CCCCC2)CCN(CC[C@H](CN(C)C(=O)c2ccc(O)cc2)c2ccc(Cl)c(Cl)c2)CC1 [compound 6, 1′-{(3S)-3-(3,4-dichlorophenyl)-4-[(4-hydroxybenzoyl)-(methyl)amino]butyl}-N,N-dimethyl-1,4′-bipiperidine-4′-carboxamide]	0.631 nM	0.06 µmol/kg	0.096 µmol/kg	0.04 µmol/kg	–	–	–	–	1.58 nM	2 nM	–	–	–	–	–	–	–	–	–
CN(C)C(=O)C1(N2CCCCC2)CCN(CC[C@H](CN(C)C(=O)c2cc(C#N)c3ccccc3c2)c2ccc(Cl)c(Cl)c2)CC1 [compound 11]	–	–	–	–	active orally on the NK2	–	–	–	–	–	8.7	0.052 µmol/kg	0.085 µmol/kg	0.212 µmol/kg	8.4	8.1	2.213 µmol/kg	11.228 µmol/kg	2.509 µmol/kg
CN(C)C(=O)C1(N2CCCCC2)CCN(CC[C@H](CN(C)C(=O)c2ccc(F)cc2F)c2ccc(Cl)c(Cl)c2)CC1 [compound 13]	–	–	–	–	–	–	–	–	–	–	9.0	–	–	–	8.3	8.0	–	–	–
CN(C)C(=O)C1(N2CCCCC2)CCN(CC[C@H](CN(C)C(=O)c2ccc(F)c(F)c2)c2ccc(Cl)c(Cl)c2)CC1 [compound 14]	–	–	–	–	–	–	–	–	–	–	9.1	0.26 µmol/kg	0.245 µmol/kg	0.247 µmol/kg	8.2	8.1	–	–	–
CN(C)C(=O)C1(N2CCCCC2)CCN(CC[C@H](CN(C)C(=O)c2cc(F)ccc2F)c2ccc(Cl)c(Cl)c2)CC1 [compound 15]	–	–	–	–	–	–	–	–	–	–	9.2	0.075 µmol/kg	0.066 µmol/kg	0.1 µmol/kg	8.3	8.1	–	–	–
